Earlier results, collected in patent US20030072802A1, “Sustained release topiramate” (R.T. Alamo Ventures, Inc., priority 2001, published 2003).

Experiments:
[1] = system: kainate/AMPA subtype of excitatory amino acid (glutamate) receptor
[2] = system: state-dependent sodium channel (cultured neurons)
[3] = formulations currently in use; after a 200 mg dose

effect on the activity of NMDA at the NMDA receptor subtype (NMDA receptor subtype): no apparent effect | half life of plasma concentration [3]: about 21 hours | time of peak topiramate plasma concentration [3]: about 2 hours | effect on the frequency at which GABA activates GABAA receptors (GABAA receptors): increases the frequency | sensitivity of the GABA-potentiating effect to flumazenil (benzodiazepine antagonist) (GABAA receptors): not blocked by flumazenil
SMILES: CC1(C)OC2COC3(COS(N)(=O)=O)OC(C)(C)OC3C2O1 [topiramate, 2,3:4,5-bis-Q-(1-methylethylidene)-p-D-fructopyranose sulfamate]
effect on the ability of kainate to activate the kainate/AMPA receptor [1]: antagonizes the ability of kainate to activate | effect on action potentials elicited repetitively by sustained depolarization [2]: blocked by topiramate in a time-dependent manner | effect on GABA-induced flux of chloride ions into neurons (GABAA receptors): enhances the ability of GABA to induce a flux of chloride ions into neurons | effect on the duration of the channel open time (GABAA receptors): nor did topiramate increase the duration of the channel open time
